These results are taken from article PMC7827406, “Structure–Activity Relationship (SAR) Study of Spautin-1 to Entail the Discovery of Novel NEK4 Inhibitors” (International Journal of Molecular Sciences, 2021).

Where two headings read alike, the source gives them in different places.

What all share (assay): biochemical
Common to all, as to design: Eurofins KinaseProfiler full panel at Km ATP, residual kinase activity (%) relative to DMSO

The target of one assay is T1, A-Raf(h) (Homo sapiens, UniProt P10398).
T1 construct: gene ARAF
T1 sequence (P10398 1-606): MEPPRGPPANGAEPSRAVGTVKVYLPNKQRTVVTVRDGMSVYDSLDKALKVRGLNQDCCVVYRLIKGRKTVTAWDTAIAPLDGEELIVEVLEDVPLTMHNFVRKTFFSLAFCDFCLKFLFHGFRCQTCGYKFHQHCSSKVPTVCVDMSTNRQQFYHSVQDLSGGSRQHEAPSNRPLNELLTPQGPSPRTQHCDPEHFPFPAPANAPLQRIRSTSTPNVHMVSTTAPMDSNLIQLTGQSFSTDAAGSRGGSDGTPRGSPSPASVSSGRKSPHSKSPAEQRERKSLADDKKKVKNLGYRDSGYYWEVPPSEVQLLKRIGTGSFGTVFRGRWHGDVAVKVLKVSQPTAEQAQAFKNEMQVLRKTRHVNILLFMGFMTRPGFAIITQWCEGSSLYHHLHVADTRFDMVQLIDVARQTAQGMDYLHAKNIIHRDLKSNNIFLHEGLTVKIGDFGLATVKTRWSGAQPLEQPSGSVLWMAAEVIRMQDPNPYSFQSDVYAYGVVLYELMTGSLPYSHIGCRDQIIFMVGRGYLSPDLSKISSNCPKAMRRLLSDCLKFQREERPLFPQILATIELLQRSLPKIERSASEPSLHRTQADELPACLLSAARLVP
In short, it runs like this: (§1)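 Compounds screened at 10 µM in radiometric kinase activity assays at Km ATP, reported as remaining kinase activity (%). A KINOMEscan competition-binding screen at 10 µM measured DNA-tagged kinase retained on immobilized active-site ligand by qPCR.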

The target in a further assay is T2, ALK4(h) (Homo sapiens, UniProt P36896).
T2 construct: gene ACVR1B
T2 sequence (P36896 1-505): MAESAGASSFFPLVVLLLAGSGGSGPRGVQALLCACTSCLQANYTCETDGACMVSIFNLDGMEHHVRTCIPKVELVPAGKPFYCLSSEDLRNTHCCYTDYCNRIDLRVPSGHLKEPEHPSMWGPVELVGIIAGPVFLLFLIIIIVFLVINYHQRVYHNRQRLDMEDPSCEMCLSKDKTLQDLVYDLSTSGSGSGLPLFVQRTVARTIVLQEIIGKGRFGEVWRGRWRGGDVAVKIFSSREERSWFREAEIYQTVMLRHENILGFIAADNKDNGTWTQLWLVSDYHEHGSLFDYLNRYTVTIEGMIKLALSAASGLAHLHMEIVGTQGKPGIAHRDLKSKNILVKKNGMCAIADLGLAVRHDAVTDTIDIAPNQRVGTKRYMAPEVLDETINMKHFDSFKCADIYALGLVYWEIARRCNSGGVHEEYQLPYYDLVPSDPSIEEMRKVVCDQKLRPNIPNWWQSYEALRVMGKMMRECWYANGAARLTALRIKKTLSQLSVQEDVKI
In short, it runs like this: as §1

The next assay addresses Blk(h) (Homo sapiens, UniProt P51451). In short, it runs like this:
as §1

The target in another assay is EGFR(L858R)(h) (Homo sapiens, UniProt P00533, L858R). In short, it runs like this:
as §1

For the next assay, the target named is EGFR(L861Q)(h) (Homo sapiens, UniProt P00533, L861Q). Put shortly:
as §1

For another assay, the target named is T3, MOK(h) (Homo sapiens, UniProt Q9UQ07).
T3 sequence (Q9UQ07 1-419): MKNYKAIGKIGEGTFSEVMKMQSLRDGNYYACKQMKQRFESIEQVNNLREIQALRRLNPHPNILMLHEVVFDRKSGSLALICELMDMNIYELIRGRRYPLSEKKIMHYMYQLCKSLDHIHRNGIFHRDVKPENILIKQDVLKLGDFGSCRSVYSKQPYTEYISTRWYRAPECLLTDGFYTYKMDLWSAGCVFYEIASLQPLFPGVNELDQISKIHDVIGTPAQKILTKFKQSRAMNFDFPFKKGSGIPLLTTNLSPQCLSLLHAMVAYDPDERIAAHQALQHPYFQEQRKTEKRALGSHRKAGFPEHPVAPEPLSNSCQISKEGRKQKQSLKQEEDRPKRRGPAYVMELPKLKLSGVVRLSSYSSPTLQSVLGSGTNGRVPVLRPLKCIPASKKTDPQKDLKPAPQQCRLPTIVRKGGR
Put shortly:
as §1

The target in the next assay is T4, MRCKα(h) (Homo sapiens, UniProt Q5VT25).
T4 construct: gene CDC42BPA
T4 sequence (Q5VT25 whole entry): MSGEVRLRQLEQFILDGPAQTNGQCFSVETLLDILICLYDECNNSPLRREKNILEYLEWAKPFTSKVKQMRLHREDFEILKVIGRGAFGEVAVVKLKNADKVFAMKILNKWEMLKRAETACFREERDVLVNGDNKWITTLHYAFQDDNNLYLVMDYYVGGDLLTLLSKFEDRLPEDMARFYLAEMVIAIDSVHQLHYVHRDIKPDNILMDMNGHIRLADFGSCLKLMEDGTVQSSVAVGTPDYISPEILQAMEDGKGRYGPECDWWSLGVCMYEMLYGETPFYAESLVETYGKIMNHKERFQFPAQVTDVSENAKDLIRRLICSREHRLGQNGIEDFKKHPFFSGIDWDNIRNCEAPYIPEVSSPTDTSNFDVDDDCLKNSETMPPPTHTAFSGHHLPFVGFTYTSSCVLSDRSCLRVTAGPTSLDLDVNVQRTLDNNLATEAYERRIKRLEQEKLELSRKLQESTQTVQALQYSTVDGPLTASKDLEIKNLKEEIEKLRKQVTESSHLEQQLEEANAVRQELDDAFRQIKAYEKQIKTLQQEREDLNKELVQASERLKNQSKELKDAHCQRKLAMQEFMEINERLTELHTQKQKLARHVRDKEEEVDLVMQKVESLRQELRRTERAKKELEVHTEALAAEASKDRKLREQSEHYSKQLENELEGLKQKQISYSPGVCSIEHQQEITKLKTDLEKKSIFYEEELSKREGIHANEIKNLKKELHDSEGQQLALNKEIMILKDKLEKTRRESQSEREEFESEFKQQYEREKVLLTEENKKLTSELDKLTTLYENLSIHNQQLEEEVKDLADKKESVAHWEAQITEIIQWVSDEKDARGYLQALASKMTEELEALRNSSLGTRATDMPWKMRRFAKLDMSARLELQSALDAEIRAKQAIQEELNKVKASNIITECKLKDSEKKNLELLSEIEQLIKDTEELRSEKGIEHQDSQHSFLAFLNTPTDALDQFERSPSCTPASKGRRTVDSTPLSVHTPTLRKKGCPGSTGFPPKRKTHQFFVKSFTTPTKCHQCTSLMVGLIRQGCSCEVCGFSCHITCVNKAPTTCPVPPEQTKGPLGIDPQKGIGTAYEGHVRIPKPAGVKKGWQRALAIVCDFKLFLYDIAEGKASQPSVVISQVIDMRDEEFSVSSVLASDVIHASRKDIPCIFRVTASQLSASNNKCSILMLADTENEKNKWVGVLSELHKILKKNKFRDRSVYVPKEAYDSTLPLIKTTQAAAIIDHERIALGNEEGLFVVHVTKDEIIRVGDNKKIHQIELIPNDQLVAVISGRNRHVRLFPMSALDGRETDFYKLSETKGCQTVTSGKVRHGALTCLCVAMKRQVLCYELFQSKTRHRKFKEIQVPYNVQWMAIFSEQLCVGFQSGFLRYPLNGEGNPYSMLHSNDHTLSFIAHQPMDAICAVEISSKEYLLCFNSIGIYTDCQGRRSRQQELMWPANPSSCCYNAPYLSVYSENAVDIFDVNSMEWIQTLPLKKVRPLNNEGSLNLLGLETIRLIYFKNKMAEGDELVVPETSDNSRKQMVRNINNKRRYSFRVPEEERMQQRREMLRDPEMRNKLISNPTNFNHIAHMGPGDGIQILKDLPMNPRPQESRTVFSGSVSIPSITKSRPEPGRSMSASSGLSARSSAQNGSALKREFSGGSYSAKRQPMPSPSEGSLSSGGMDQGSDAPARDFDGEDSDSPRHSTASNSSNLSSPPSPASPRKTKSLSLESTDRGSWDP
In short, it runs like this: as §1

The target of another assay is T5, cKit(D816H)(h) (Homo sapiens, UniProt P10721, D816H).
T5 construct: gene KIT
In short, it runs like this: as §1

[1] abbreviates: read-out: Residual activity (%) Spautin-1 5aa.
The mark [2] stands for this setting: read-out: Residual activity (%) 5as.
[3] abbreviates: read-out: Residual activity (%) 5at.
Setting [4] is: read-out: Residual activity (%) 5ay.

EGFR(L861Q)(h), sequence (P00533 whole entry L861Q): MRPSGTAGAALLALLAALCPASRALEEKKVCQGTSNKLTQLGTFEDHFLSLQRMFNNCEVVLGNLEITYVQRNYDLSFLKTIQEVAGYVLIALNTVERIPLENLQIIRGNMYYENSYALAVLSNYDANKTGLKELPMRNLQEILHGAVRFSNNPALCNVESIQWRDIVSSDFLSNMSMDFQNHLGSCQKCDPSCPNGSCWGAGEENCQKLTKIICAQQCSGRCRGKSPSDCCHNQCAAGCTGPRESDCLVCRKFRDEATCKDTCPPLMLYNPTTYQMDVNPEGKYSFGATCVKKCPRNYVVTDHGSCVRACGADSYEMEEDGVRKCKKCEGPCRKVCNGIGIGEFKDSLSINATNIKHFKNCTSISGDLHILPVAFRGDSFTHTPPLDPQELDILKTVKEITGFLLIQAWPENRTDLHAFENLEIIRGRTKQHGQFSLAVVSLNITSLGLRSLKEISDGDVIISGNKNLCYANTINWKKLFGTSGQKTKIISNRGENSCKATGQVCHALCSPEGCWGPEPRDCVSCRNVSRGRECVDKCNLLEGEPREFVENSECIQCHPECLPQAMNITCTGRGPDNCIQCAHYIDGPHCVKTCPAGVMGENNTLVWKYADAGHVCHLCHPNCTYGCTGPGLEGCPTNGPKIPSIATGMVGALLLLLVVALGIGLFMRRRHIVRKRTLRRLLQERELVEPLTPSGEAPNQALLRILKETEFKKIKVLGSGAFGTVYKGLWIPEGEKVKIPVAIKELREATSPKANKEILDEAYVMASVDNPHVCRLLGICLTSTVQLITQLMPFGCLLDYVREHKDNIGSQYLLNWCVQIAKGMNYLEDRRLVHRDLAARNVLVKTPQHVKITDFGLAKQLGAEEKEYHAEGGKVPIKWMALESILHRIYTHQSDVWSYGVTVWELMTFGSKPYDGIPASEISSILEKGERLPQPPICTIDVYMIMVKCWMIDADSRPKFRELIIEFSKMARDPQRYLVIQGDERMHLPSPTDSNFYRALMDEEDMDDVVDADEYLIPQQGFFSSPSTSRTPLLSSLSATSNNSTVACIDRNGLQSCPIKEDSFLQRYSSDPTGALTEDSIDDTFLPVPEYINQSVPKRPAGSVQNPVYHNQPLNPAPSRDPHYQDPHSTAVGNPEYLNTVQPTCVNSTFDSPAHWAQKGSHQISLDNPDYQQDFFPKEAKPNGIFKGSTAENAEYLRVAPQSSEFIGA
Blk(h), sequence (P51451 whole entry): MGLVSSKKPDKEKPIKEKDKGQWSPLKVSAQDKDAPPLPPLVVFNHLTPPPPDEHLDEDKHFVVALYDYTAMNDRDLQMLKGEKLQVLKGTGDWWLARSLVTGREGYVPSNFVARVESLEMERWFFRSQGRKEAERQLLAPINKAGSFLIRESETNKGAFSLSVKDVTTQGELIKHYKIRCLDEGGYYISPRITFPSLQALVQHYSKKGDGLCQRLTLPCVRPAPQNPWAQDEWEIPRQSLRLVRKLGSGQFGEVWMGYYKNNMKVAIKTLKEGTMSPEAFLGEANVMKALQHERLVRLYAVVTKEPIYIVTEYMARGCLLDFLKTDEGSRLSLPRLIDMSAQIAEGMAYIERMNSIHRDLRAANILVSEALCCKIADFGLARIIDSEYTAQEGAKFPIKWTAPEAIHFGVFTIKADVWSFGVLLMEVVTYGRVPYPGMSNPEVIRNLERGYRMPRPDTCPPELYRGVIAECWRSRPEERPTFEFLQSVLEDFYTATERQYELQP
EGFR(L858R)(h), sequence (P00533 whole entry L858R): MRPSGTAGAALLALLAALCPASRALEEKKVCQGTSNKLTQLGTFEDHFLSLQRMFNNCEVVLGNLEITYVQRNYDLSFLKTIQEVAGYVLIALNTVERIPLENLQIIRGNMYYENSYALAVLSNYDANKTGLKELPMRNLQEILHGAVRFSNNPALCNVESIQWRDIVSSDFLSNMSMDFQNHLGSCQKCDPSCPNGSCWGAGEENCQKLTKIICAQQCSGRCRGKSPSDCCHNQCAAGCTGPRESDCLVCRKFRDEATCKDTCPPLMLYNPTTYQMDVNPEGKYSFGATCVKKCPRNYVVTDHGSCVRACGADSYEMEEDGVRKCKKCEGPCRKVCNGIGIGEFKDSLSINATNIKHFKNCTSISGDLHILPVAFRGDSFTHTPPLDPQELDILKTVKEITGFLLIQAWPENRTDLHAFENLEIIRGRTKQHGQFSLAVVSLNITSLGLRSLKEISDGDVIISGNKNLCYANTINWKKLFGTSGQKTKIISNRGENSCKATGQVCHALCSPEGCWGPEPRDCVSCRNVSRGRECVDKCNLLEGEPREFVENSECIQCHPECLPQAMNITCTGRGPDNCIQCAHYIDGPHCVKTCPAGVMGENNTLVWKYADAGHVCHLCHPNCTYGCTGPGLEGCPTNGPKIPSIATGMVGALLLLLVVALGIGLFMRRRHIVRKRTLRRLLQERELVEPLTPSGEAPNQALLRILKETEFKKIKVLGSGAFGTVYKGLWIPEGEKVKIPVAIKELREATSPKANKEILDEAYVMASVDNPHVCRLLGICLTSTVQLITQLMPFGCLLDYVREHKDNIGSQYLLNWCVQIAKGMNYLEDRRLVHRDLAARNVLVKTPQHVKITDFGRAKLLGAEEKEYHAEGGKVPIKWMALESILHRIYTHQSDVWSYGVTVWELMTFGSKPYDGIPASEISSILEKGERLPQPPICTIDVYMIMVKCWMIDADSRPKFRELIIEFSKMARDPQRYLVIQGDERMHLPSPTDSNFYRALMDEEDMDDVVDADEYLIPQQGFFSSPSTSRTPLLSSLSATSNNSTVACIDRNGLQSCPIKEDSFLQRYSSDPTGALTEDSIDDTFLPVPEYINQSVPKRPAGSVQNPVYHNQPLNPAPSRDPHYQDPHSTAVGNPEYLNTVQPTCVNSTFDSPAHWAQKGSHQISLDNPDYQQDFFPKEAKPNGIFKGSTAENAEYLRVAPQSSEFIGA

`Fc1ccc(CNc2ncnc3ccc(F)cc23)cc1` [5aa, 6-Fluoro-N-(4-fluorobenzyl)-4-Quinazolinamine]: the remaining activity at 10 µM on A-Raf(h) (setting [1]) stood at 103%; at ALK4(h) (setting [1]), 121%; on Blk(h) (setting [1]) it was 97%; on EGFR(L858R)(h) (setting [1]), 23%; at EGFR(L861Q)(h) (setting [1]), 36%; on MOK(h) (setting [1]) it was 89%. In addition, the results for the remaining activity at 10 µM on MRCKα(h) (setting [1]) and at cKit(D816H)(h) (setting [1]) were 91% and 115%, respectively.
Consider `Fc1ccc(CCNc2ncnc3ccc(F)cc23)cc1` [5as, 6-Fluoro-N-[2-(4-Fluorophenyl)Ethyl]-4-Quinazolinamine], for which the remaining activity at 10 µM on A-Raf(h) (setting [2]) is 106%; on ALK4(h) (setting [2]) it was 84%; on Blk(h) (setting [2]), 100%; at EGFR(L858R)(h) (setting [2]), 37%; on EGFR(L861Q)(h) (setting [2]) it was 51%; at MOK(h) (setting [2]) it was 86%. Also, the values for the remaining activity at 10 µM at MRCKα(h) (setting [2]) and on cKit(D816H)(h) (setting [2]) were 93% and 95%, respectively.
Take `Fc1ccc2ncnc(NCCc3ccc(Cl)cc3)c2c1` [5at, N-[2-(4-Chlorophenyl)Ethyl]-6-Fluoro-4-Quinazolinamine]: the remaining activity at 10 µM was found to be 108% on A-Raf(h) (setting [3]); 61% on ALK4(h) (setting [3]); 91% on Blk(h) (setting [3]); 60% on EGFR(L858R)(h) (setting [3]); 73% on EGFR(L861Q)(h) (setting [3]); 100% at MOK(h) (setting [3]). For the same compound, the remaining activity at 10 µM was 98% on MRCKα(h) (setting [3]) and 95% on cKit(D816H)(h) (setting [3]).
Take `COc1ccc2ncnc(Nc3cccc(F)c3)c2c1` [5ay, N-(3-Fluorophenyl)-6-Methoxy-4-Quinazolinamine]: the remaining activity at 10 µM turned out to be 100% at A-Raf(h) (setting [4]); 73% on ALK4(h) (setting [4]); 85% at Blk(h) (setting [4]); 3% at EGFR(L858R)(h) (setting [4]); 65% on MOK(h) (setting [4]); 87% at MRCKα(h) (setting [4]). Besides, the remaining activity at 10 µM at cKit(D816H)(h) (setting [4]) is 89%.
